The text below walks through data of patent US20080261911A1, “Uses of diphenyl/diphenylamine carboxylic acids” (priority 2006, published 2008).

Assay [1] relates to Panc-1 cells. Description: Cell proliferation assay, Panc-1 cells. To be noted: for growth of Panc-1 pancreatic cancer cells: different concentrations, 6 days, cell counting. Format: cell-based. The procedure: FIGS. 6A-6E show comparative effects of non-steroidal anti-inflammatory drugs on Panc-1 cell proliferation and Sp protein expression. Effects of tolfenamic acid (FIG. 6A), ampiroxicam (FIG. 6B), naproxen (FIG. 6C), and diclofenac sodium (FIG. 6D) on Panc-1 cell proliferation. Panc-1 cells were treated with different concentrations of non-steroidal anti-inflammatory drugs for 6 days, and the number of cells were determined on days 2, 4, and 6 by cell counting techniques. […] Panc-1 cells were treated with DMSO, 150 μM ampiroxicam, 150 μM naproxen, and 50 μM tolfenamic acid for 48 hr, and levels of Sp proteins and the cleaved poly (ADP-ribose) polymerase (PARP) protein were determined in whole cell lysates by Western blot analysis. […] Panc1, Panc28 and L3.6pl cells are seeded in DMEM/F12 media with 5% FBS and treated the next day with either vehicle (DMSO) or with the indicated compounds' concentrations. Cells are counted at the indicated times using a Z1™ COULTER COUNTER® cell counter. Each experiment is carried out in triplicate and results expressed as means ±SD for each determination.

In assay [2] the test system is Panc-1 cells. Briefly: Panc-1 cell migration (scratch) assay on collagen IV-coated plates. Format: cell-based. To be noted: 50 μM; for VEGF-B-induced cell migration: VEGF-B 50 ng/ml, 16 h. The procedure:
Cells were pretreated with DMSO, 50 μM ampiroxicam, or 50 μM tolfenamic acid for 36 hr; VEGF-B (50 ng/ml) was added for 5 or 10 min, and whole cell lysates were obtained and analyzed by Western blot. Cell migration assay (FIG. 18C). […] Immunostaining of pancreatic tumors (FIG. 18D). Pancreatic tumors from athymic nude mice treated with solvent (control), gemcitabine (50 mg/kg), or tolfenamic acid (25 and 50 mg/kg) (Dick, 1996) were stained with VEGFR1 antibodies as described below and in a previous report (Dick, 1996).
Panc-1 cells were pretreated with DMSO, 50 μM ampiroxicam, or 50 μM tolfenamic acid for 48 h, and then were treated with VEGF-B (50 ng/ml) for 5 and 10 min. MAPK phosphorylation in the various treatment groups was then determined by western immunoblot analysis as described above. For migration assays, Panc-1 cells were seeded in triplicate in six-well collagen IV coated plates and then treated with the selected non-steroidal anti-inflammatory drugs for 24 h before the scratch was made. A scratch through the central axis of the plate was gently made using a sterile pipette tip. Cells were 70% confluent when the scratch was made. […] Results of this study were obtained at a 16 h time point and one plate was stained using DIFF QUIK (Dade Behring, Newark, Del.).
Previous studies have reported that activation of VEGFR1 by VEGF-B in pancreatic cancer cells results in enhanced phosphorylation of MAPK and increased cell migration and invasion. […] The importance of Sp protein in VEGFR1-dependent Panc-1 cell migration was determined using a cell migration assay on collagen IV-coated plates.

For assay [3], the system named is VEGFR1. Briefly: VEGFR1 protein expression in Panc-1 cells (Western blot, immunostaining). The settings on record: 50 μM, 48 h. Format: cell-based. As for the experimental part:
FIGS. 14A-14D show tolfenamic acid decreases expression of Sp and VEGFR1 proteins in pancreatic cancer cells. Tolfenamic acid effects on Panc-1 cells (FIG. 14A and FIG. 14B), and L3.6pl cells (FIG. 14C and FIG. 14D). Cells were treated with DMSO, 50 μM tolfenamic acid, or 50 μM ampiroxicam for 48 h, and whole cell lysates were analyzed by Western blot analysis. […] FIGS. 16A-16D show the interaction of Sp proteins with VEGFR1 promoter sequences. […] The specific Sp protein bands and antibody supershifted complexes are indicated with arrows. Effects of tolfenamic acid on VEGFR1 and Egr-1 protein expression in Panc-1 cells (FIG. 16C), and L3.6pl cells (FIG. 16D). […] Cells are washed once with phosphate buffered saline PBS and collected by scraping in 200 μL of lysis buffer [50 mM HEPES, 0.5M sodium chloride, 1.5 mM magnesium chloride, 1 mM EGTA, 10% (v/v) glycerol, 1% Triton X-100, 5 μL/ml of Protease Inhibitor Cocktail (Sigma)]. The lysates from the cells are incubated on ice for 1 hr with intermittent vortexing followed by centrifugation at 40,000 g for 10 min at 4° C. […] Samples are electrophoresed, transferred to membranes, and proteins detected by incubation with polyclonal primary antibodies Sp1, Sp3, Sp4, HDAC, VEGF (a-20), c-Met, surviving, VEGF, cleaved PARP, and β-tubulin (H-235) followed by blotting with appropriate horseradish peroxidase-conjugated secondary antibody as previously described (Abdelrahim et al, 2004). After autoradiography, band intensities are determined by a scanning laser densitometer (Sharp Electronics Corporation, Mahwah, N.J.) using ZERO-D […] software (Scanalytics Corporation, Billerica, Mass.).
Background: Immunoblotting shows a protein as a band on a membrane.

Assay [4] concerns VEGF-B/VEGFR1 signaling (MAPK1/2 phosphorylation). Briefly: VEGF-B activation of MAPK in L3.6pl cells. Format: cell-based, human. The settings on record: 50 μM pretreatment for 36 hr, VEGF-B 5 or 10 min.
The test system of assay [5] is Sp protein binding to GC-rich VEGF promoter oligonucleotide. Description: Gel mobility shift of nuclear extracts from Panc-1 cells with VEGF32P. Format: cell-based. To be noted: nuclear extracts of Panc-1 cells treated with 50 μM for 48 hr.
Procedure: Vascular endothelial growth factor and VEGFR1 oligonucleotides are synthesized and annealed, and 5 pmol aliquots are 5′-end-labeled using T4 kinase and [y-^32P]ATP. After the reaction sample was incubated 20 min on ice, and antibodies against Sp1, Sp3, and Sp4 proteins are added and incubated another 20 min on ice. Protein-DNA complexes are resolved by 5% polyacrylamide gel electrophoresis as previously described (Abdelrahim et al, 2004; Abdelrahim et al, 2005, Abdelrahim et al, submitted 2005).
Panc1 or L3.6pl cells were treated with DMSO, 50 μM tolfenamic acid or 50 μM ampiroxicam for 48 hr. Nuclear extracts from these cells were isolated, incubated with VEGF^32P and analyzed in gel mobility shift assays.
The radiolabeled oligonucleotide contained a GC-rich region (−66 to −47) from the VEGF promoter that binds Sp proteins.
Assay [6] relates to Egr-1 protein. Description: Egr-1 protein expression in Panc-1 cells, Western blot. Format: cell-based. To be noted: 50 μM, 48 h. As for the experimental part: (§1) Cells are washed once with phosphate buffered saline PBS and collected by scraping in 200 μL of lysis buffer [50 mM HEPES, 0.5M sodium chloride, 1.5 mM magnesium chloride, 1 mM EGTA, 10% (v/v) glycerol, 1% Triton X-100, 5 μL/ml of Protease Inhibitor Cocktail (Sigma)]. The lysates from the cells are incubated on ice for 1 hr with intermittent vortexing followed by centrifugation at 40,000 g for 10 min at 4° C. Equal amounts of protein (60 μg) from each treatment group are diluted with loading buffer, boiled and loaded onto 10 and 12.5% SDS-polyacrylamide gel. For vascular endothelial growth factor immunoblots, 100 μg of protein are used. Samples are electrophoresed, transferred to membranes, and proteins detected by incubation with polyclonal primary antibodies Sp1, Sp3, Sp4, HDAC, VEGF (a-20), c-Met, surviving, VEGF, cleaved PARP, and β-tubulin (H-235) followed by blotting with appropriate horseradish peroxidase-conjugated secondary antibody as previously described (Abdelrahim et al, 2004). After autoradiography, band intensities are determined by a scanning laser densitometer (Sharp Electronics Corporation, Mahwah, N.J.) using ZERO-D SCANALYTICS software (Scanalytics Corporation, Billerica, Mass.).
(§2) The proximal region of the VEGFR1 promoter contains GC-rich and Egr-1 sites. […]

Assay [7] relates to VEGFR1. Briefly: VEGFR1 protein expression in L3.6pl cells (Western blot). Format: cell-based, human. To be noted: 50 μM, 48 h. The procedure: FIGS. 14A-14D show tolfenamic acid decreases expression of Sp and VEGFR1 proteins in pancreatic cancer cells. Tolfenamic acid effects on Panc-1 cells (FIG. 14A and FIG. 14B), and L3.6pl cells (FIG. 14C and FIG. 14D). Cells were treated with DMSO, 50 μM tolfenamic acid, or 50 μM ampiroxicam for 48 h, and whole cell lysates were analyzed by Western blot analysis. […] FIGS. 16A-16D show the interaction of Sp proteins with VEGFR1 promoter sequences. […] The specific Sp protein bands and antibody supershifted complexes are indicated with arrows. Effects of tolfenamic acid on VEGFR1 and Egr-1 protein expression in Panc-1 cells (FIG. 16C), and L3.6pl cells (FIG. 16D). […] Samples are electrophoresed, transferred to membranes, and proteins detected by incubation with polyclonal primary antibodies Sp1, Sp3, Sp4, HDAC, VEGF (a-20), c-Met, surviving, VEGF, cleaved PARP, and β-tubulin (H-235) followed by blotting with appropriate horseradish peroxidase-conjugated secondary antibody as previously described (Abdelrahim et al, 2004). After autoradiography, band intensities are determined by a scanning laser densitometer (Sharp Electronics Corporation, Mahwah, N.J.) using ZERO-D […] software (Scanalytics Corporation, Billerica, Mass.).

In assay [8] the test system is Egr-1 protein. Description: Egr-1 protein expression in L3.6pl cells, Western blot. Format: cell-based, human. To be noted: 50 μM, 48 h. As for the experimental part:
as §1, §2

As to `CCOC(=O)OC(C)OC1=C(C(=O)Nc2ccccn2)N(C)S(=O)(=O)c2ccccc21` (centres unmarked) [ampiroxicam], the “growth of Panc-1 pancreatic cancer cells” value in assay [1] is recorded as “decreased growth of Panc-1 pancreatic cancer cells”. Further, the VEGF-B-induced cell migration entry in assay [2] was “inactive in all assays”. Besides, the VEGFR1 immunostaining entry in assay [3] is reported as “VEGFR1 immunostaining was observed”. For the same compound, the “VEGFR1 protein levels, Western blot” value in assay [3] and in assay [7] was “only the latter compound decreased VEGFR1 protein levels” in each case. For the same compound, the “VEGF-B-induced phosphorylation of MAPK1/2” value in assay [4] is reported as “increased phosphorylation of MAPK1/2”. Further, in assay [5], the “Sp3 and Sp1/Sp4 retarded bands with VEGF32P” value was “retarded bands of similar intensity”. In addition, the Egr-1 protein result in assay [6] and in assay [8] was “unchanged in all treatment groups” in each case.
Consider `Cc1c(Cl)cccc1Nc1ccccc1C(=O)O` [tolfenamic acid], for which the “relative potency in Panc-1 growth inhibition” value in assay [1] (compared with ampiroxicam and naproxen) is listed as “exhibited higher potencies”. Moreover, the “growth of Panc-1 pancreatic cancer cells” value in assay [1] is on record as “decreased growth of Panc-1 pancreatic cancer cells”. For the same compound, the “cell migration in the absence of VEGF-B” value in assay [2] (16 h time point, DMSO set at 100%) is given as “only significantly inhibited by tolfenamic acid”. Further, the VEGF-B-induced cell migration entry in assay [2] is recorded as “significantly inhibited VEGF-B-induced cell migration”. The VEGFR1 immunostaining result in assay [3] was “decreased VEGFR1 staining”. Moreover, the “VEGFR1 protein levels, Western blot” value in assay [3] and in assay [7] was “decreased VEGFR1 protein levels” throughout. Besides, the “VEGF-B-induced phosphorylation of MAPK1/2” value in assay [4] was “decreased phospho-MARK1/2”. Also, the “Sp3 and Sp1/Sp4 retarded bands with VEGF32P” value in assay [5] was “retarded bands were decreased”. For the same compound, the Egr-1 protein entry in assay [6] and in assay [8] was “unchanged in all treatment groups” throughout.
